The text below walks through data of US20250228873A1, “C25 R AND S ISOMERS OF AMINOSTEROLS AND METHODS OF MAKING AND USING THE SAME” (Enterin, Inc., priority 2022, published 2025).

Like-named read-outs stand apart in the source and are kept apart here.

Common to all, as to assay: Phosphatase panel, DiFMUP fluorescence assay
Holding throughout (assay type): biochemical

One assay concerns the target T1, PP1B (Homo sapiens, UniProt P62140).
T1 construct: purchased Recation Biology Inc

Another assay deals with T2, PP1A (Homo sapiens, UniProt P62136).
T2 construct: purchased Recation Biology Inc
T2 sequence (P62136 whole entry): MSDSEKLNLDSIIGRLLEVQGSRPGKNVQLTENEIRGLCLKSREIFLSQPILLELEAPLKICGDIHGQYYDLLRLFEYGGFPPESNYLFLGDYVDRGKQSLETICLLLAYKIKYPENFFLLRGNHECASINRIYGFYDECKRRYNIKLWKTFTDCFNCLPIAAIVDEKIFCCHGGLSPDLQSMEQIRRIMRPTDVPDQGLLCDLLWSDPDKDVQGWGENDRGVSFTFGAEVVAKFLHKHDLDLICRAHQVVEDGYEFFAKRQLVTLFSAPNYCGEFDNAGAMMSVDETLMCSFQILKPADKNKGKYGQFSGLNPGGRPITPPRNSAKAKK

Another assay deals with T3, PTPRC/CD45 (Homo sapiens, UniProt P08575).
T3 construct: purchased Recation Biology Inc
T3 sequence (P08575 26-1306): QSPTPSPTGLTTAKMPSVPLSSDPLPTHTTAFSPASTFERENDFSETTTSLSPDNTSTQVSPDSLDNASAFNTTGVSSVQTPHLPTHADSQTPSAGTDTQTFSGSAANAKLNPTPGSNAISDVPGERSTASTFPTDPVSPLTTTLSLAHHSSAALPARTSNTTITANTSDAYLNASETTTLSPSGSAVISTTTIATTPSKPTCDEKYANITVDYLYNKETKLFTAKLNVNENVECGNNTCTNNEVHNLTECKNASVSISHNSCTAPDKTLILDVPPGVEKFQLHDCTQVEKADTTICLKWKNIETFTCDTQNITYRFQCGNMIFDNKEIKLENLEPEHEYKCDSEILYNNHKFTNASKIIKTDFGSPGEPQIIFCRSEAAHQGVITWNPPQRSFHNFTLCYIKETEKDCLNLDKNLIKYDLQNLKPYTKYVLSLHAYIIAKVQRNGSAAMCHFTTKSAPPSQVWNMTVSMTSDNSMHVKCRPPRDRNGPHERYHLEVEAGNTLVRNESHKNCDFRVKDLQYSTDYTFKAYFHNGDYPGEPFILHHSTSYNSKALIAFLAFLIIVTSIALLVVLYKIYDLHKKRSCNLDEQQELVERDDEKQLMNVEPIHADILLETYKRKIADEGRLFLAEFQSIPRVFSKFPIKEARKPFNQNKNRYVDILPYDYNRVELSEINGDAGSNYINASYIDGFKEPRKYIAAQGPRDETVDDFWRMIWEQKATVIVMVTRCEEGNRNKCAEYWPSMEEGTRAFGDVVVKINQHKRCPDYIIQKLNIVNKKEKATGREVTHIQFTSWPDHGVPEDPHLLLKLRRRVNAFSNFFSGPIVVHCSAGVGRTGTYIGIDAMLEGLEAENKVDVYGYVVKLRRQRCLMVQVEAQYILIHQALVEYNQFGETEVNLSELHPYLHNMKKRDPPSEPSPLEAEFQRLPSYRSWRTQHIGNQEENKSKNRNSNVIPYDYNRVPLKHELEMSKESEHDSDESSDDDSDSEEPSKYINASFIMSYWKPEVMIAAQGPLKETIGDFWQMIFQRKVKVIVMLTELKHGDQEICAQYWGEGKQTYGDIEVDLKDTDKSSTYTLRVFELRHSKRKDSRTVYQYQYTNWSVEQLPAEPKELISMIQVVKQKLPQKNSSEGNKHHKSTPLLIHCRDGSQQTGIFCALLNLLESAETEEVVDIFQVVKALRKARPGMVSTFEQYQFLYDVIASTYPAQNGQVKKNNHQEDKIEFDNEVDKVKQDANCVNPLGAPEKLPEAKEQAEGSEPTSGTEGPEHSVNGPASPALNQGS

A further assay addresses T4, PTPN2/TC-PTP (Homo sapiens, UniProt P17706).
T4 construct: purchased Recation Biology Inc
T4 sequence (P17706 1-415): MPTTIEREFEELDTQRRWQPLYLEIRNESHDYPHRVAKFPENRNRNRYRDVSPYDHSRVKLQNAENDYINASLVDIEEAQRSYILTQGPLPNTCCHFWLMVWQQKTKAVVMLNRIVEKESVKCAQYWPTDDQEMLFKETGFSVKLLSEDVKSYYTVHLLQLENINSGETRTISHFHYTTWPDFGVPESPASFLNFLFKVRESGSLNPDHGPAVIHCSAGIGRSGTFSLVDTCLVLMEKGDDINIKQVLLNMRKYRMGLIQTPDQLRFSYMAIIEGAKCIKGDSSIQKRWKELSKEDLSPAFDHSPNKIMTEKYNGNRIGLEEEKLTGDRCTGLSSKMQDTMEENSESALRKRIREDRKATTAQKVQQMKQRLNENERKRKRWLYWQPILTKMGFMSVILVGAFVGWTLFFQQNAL

Another assay has as its target T5, PTPN1/PTP1B-CD (Homo sapiens, UniProt P18031).
T5 construct: purchased Recation Biology Inc
T5 sequence (P18031 3-277 limits assumed): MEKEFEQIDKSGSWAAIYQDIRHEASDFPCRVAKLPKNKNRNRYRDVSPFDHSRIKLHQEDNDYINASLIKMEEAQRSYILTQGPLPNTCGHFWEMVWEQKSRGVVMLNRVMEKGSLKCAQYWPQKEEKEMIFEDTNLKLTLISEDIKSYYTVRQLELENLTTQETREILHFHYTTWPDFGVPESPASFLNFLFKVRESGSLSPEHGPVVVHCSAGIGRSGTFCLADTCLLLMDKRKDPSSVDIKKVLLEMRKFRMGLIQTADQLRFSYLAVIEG

The target of a further assay is T6, PTPN11/SHP2 (Homo sapiens, UniProt Q06124).
T6 sequence (Q06124 1-593): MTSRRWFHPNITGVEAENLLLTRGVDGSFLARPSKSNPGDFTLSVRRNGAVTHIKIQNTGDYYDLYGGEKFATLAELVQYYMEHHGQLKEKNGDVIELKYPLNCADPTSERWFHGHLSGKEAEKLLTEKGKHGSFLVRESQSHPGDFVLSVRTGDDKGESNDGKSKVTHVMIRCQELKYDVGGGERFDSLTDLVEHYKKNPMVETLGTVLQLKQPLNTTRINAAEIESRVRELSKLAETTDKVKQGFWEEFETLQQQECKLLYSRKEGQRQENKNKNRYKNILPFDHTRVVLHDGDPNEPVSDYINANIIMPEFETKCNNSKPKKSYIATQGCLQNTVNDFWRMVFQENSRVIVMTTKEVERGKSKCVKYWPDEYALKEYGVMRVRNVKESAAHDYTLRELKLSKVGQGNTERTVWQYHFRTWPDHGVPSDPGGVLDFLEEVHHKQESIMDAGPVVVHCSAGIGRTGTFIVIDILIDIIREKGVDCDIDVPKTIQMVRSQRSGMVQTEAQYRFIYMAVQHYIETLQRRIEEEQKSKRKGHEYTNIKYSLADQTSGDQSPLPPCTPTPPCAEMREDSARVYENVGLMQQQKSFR
The note with it: read-out: inhibitory activity PTPN11/SHP.

[1] abbreviates: Table 19A, read-out: inhibitory activity PP1B.
[2] abbreviates: Table 19A, read-out: inhibitory activity PP1A.
[3] abbreviates: Table 5B, read-out: Compound IC50 (M) PTPRC/CD45.
Where [4] appears, read: Table 19A, read-out: inhibitory activity PTPRC/CD45.
[5] abbreviates: Table 19B, read-out: inhibitory activity PTPN2/TC-PTP.
[6] abbreviates: Table 19B, read-out: inhibitory activity PTPN1/PTP1B-CD.

T1 sequence (P62140 whole entry): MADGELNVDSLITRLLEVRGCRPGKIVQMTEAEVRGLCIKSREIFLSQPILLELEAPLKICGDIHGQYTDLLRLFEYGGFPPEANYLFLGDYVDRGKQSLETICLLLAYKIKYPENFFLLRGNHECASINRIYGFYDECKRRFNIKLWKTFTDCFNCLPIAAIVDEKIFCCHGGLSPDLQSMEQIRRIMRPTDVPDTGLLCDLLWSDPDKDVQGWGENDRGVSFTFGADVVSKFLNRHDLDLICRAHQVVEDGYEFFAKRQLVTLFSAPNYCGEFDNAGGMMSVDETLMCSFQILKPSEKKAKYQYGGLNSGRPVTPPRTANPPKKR

For the compound `CC(CCC[C@@H](C)[C@H]1CCC2C3C(CC(O)[C@@]21C)[C@@]1(C)CC[C@H](NCCCNCCCCN)C[C@@H]1C[C@H]3O)C(=O)O` (single isomer, unassigned) [ENT-05], the IC50 on PP1B (Table 18A, read-out: inhibitory activity PP1B) is greater than 0.0001 M; at PP1A (Table 18A, read-out: inhibitory activity PP1A), greater than 0.0001 M; on PTPRC/CD45 (Table 18A, read-out: inhibitory activity PTPRC/CD45), greater than 0.0001 M; on PTPN2/TC-PTP (Table 18B, read-out: inhibitory activity PTPN2/TC-PTP) it was greater than 0.0001 M; on PTPN1/PTP1B-CD (Table 18B, read-out: inhibitory activity PTPN1/PTP1B-CD), 2.58e-06 M; on PTPN11/SHP2 (Table 18A) it was 18.4 µM.

Regarding `CC(CCC[C@@H](C)[C@H]1CCC2C3C(CC[C@@]21C)[C@@]1(C)CC[C@H](NCCCNCCCCNCCCN)C[C@@H]1C[C@H]3O)C(=O)O` (single isomer, unassigned) [ENT-03], the “activity at PP1B” value at PP1B is “inactive”. Further, the IC50 at PP1B (Table 5B, read-out: Compound IC50 (M) PP1B) was greater than 0.0001 M; on PP1B (setting [1]), greater than 0.0001 M; at PP1A (Table 5B, read-out: Compound IC50 (M) PP1A) it was greater than 0.0001 M; on PP1A (setting [2]), greater than 0.0001 M; on PTPRC/CD45 (setting [3]) it was 5.71e-07 M; at PTPRC/CD45 (setting [4]), 5.17e-07 M. The IC50 on PTPN2/TC-PTP (Table 5C, read-out: Compound IC50 (M) PTPN2/TC-PTP) is greater than 0.0001 M; on PTPN2/TC-PTP (setting [5]) it was greater than 0.0001 M; at PTPN1/PTP1B-CD (Table 5C, read-out: Compound IC50 (M) PTPN1/PTP1B-CD), 1.17e-07 M; at PTPN1/PTP1B-CD (setting [6]), 1.17e-07 M; on PTPN11/SHP2 (Table 19A), 5 µM. In addition, the “activity at PP1A” value at PP1A is “inactive”. Besides, on PTPN2/TC-PTP, the “activity at PTPN2” value is “inactive”.

As to `CC(CCC[C@@H](C)[C@H]1CCC2C3C(CC[C@@]21C)[C@@]1(C)CC[C@H](NCCCNCCCCN)C[C@@H]1C[C@H]3O)C(=O)O` (single isomer, unassigned) [ENT-06], the IC50 is greater than 0.0001 M on PP1B (setting [1]); greater than 0.0001 M at PP1A (setting [2]); 1.22e-06 M at PTPRC/CD45 (setting [4]); greater than 0.0001 M on PTPN2/TC-PTP (setting [5]); 1.47e-07 M on PTPN1/PTP1B-CD (setting [6]); 3.45 µM on PTPN11/SHP2 (Table 19A).

Turning to `CC(C)[C@@H](CC[C@@H](C)[C@H]1CC[C@H]2[C@@H]3[C@H](O)C[C@H]4C[C@@H](NCCCNCCCCNCCCN)CC[C@]4(C)[C@H]3CC[C@]12C)OS(=O)(=O)O` (single isomer, unassigned) [ENT-02 (MSI-1436), trodusquemine], the IC50 on PTPRC/CD45 (setting [3]) was found to be 4.94e-07 M.
